≈ marks a conversion by molar mass, not a printed value.
Assays:
[1] = system: Aspergillus fumigatus (ATCC 13073); experiment: Survival of severely immunocompromised, neutropenic mice infected with Aspergillus fumigatus, monotherapy or combination; format: in vivo; conditions: Compound (I) 0.4 mg/mL (in), Posaconazole 1 mg/kg (po), once daily days 1-6
Protocol: On day 0, animals were infected intranasally with 35 μL of the spore suspension (1.67×10^8 spores/mL in physiological saline) of Aspergillus fumigatus (ATCC 13073 [strain: NIH 5233]). Compound (I) prepared as a suspension in isotonic saline (0.4 mg/mL) was dosed once daily by an intra-nasal injection (35 μL/mouse) on days 1-6 after infection. Posaconazole (1 mg/kg) was given orally once daily on days 1-6 after infection. Body weight and survival were monitored daily up to day 7.

[2] = system: Aspergillus fumigatus (ATCC 13073); experiment: In vivo anti-fungal activity: CFU in lung and galactomannan in BALF and serum; parameters: species or system mice; conditions: for ID50, GM in BALF / ID50, GM in serum / ID50, Lung Fungal Load: Prophylactic Regimen
Protocol: (§1) Aspergillus fumigatus (ATCC 13073 [strain: NIH 5233], American Type Culture Collection, Manassas, Va., USA) was grown on Malt agar (Nissui Pharmaceutical, Tokyo, Japan) plates for 6-7 days at RT (24±1° C.). Spores were aseptically dislodged from the agar plates and suspended in sterile distilled water with 0.05% Tween 80 and 0.1% agar. On the day of infection, spore counts were assessed by haemocytometer and the inoculum was adjusted to obtain a concentration of 1.67×10^8 spores mL^−1 of physiological saline.
(§2) On day 0, animals were infected with the spore suspension (35 μL intra-nasally).
(§3) Test compounds were administered intra-nasally ([…]) once daily, 30 min before infection on day 0 and then on days 1, 2 and 3 (representing prophylactic treatment) or on days 1, 2 and 3 only (representing therapeutic treatment). For extended prophylactic treatment, test compounds (35 μL of a suspension of 0.0032 or 0.016 mg/mL in physiological saline) were administered intra-nasally once daily for seven days; then 30 min before infection on day 0, and thereafter, either on days 1, 2 and 3 after infection, or on day 0 only. The effects of these treatment paradigms were compared with those obtained when treatment was restricted to one day and 30 min before inoculation and then on days 1, 2 and 3 post infection; or reduced still further to one day and 30 min before infection only.
(§4) Six hours after the last dose, animals were anesthetised, the trachea was cannulated and BALF was collected. The total number of alveolar cells was determined using a haemocytometer, and the numbers of alveolar macrophages and neutrophils were determined by FACS analysis (EPICS® ALTRA II, Beckman Coulter, Inc., Fullerton, Calif., USA) using anti-mouse MOMA2-FITC (macrophage) or anti-mouse 7/4 (neutrophil), respectively, as previously reported (Kimura et al., 2013). The levels of IFN-γ and IL-17 in BALF, and IL-6 and TNFα in serum were determined using Quantikine® mouse IFN-γ, IL-17, IL-6 or TNF-α ELISA kit (R&D systems, Inc., Minneapolis, Minn., USA) respectively. MDA, an oxidative stress marker, was assayed using OxiSelect® TBARS Assay Kits (MDA Quantitation; Cell Biolabs Inc, San Diego, Calif., USA). Aspergillus GM in serum was determination using Platelia GM-EIA kits (Bio-Rad Laboratories, Redmond, Wash., USA). Cut-off index was calculated by the formula: Cut-off index=OD in sample/OD in cut-off control provided in kit. For tissue fungal load assays, 100 mg of lung tissue was removed aseptically and homogenized in 0.2 mL of 0.1% agar in sterile distilled water. Serially diluted lung homogenates were plated on Malt agar plates (50 μL/plate), and incubated at 24±1° C. for 72 to 96 h. The colonies of A. fumigatus on each plate was counted and the fungal titre presented as CFU per gram of lung tissue.

[3] = system: Aspergillus fumigatus (ATCC 13073); experiment: IFNγ, IL-17 and MDA levels in BALF of Aspergillus fumigatus infected mice; format: in vivo; conditions: for ID50, IFNγ in BALF / ID50, IL-17 in BALF / ID50, MDA in BALF: Prophylactic Regimen
Protocol: as §1, §2, §3, §4

[4] = Prophylactic Treatment, 0.08 mg/mL intra-nasally
[5] = Prophylactic Treatment, 0.4 mg/mL intra-nasally
[6] = Prophylactic Treatment, 2 mg/mL intra-nasally
[7] = Therapeutic Treatment, 0.4 mg/mL intra-nasally
[8] = Therapeutic Treatment, 2 mg/mL intra-nasally
[9] = Therapeutic Treatment, 10 mg/mL intra-nasally
[10] = prophylactic, 0.08 mg/mL intra-nasally
[11] = prophylactic, 0.4 mg/mL intra-nasally
[12] = prophylactic, 2 mg/mL intra-nasally
[13] = therapeutic, 0.4 mg/mL intra-nasally
[14] = therapeutic, 2 mg/mL intra-nasally
[15] = therapeutic, 10 mg/mL intra-nasally

Cc1cc(N2CCN(c3ccc(C(=O)Nc4ccc(F)cc4)cc3)CC2)ccc1OC[C@@H]1CO[C@@](Cn2cncn2)(c2ccc(F)cc2F)C1 [Compound (I), 4-(4-(4-(((3R,5R)-5-((1H-1,2,4-triazol-1-yl)methyl)-5-(2,4-difluorophenyl)tetrahydrofuran-3-yl)methoxy)-3-methylphenyl)piperazin-1-yl)-N-(4-fluorophenyl)benzamide]
Median survival [1]: 6 days | No. of survivors on day 7 [1]: 0/6 | survivors on day 7 (%) [1]: 0% | ID50, GM in BALF [2]: <80 µg/mL | ID50, GM in serum [2]: <80 µg/mL | ID50, Lung Fungal Load [2]: 86 µg/mL (≈ 126 µM) | CFU in lung [2, 4]: 15.2 ± 13.7 /mg of lung | CFU in lung, % inhibition [2, 4]: 46% | GM in BALF [2, 4]: 0.70 ± 0.39 COI | GM in BALF, % inhibition [2, 4]: 85% | GM in serum [2, 4]: 0.81 ± 0.52 COI | GM in serum, % inhibition [2, 4]: 85% | CFU in lung [2, 5]: 2.1 ± 1.6 /mg of lung | CFU in lung, % inhibition [2, 5]: 93% | GM in BALF [2, 5]: 0.37 ± 0.46 COI | GM in BALF, % inhibition [2, 5]: 92% | GM in serum [2, 5]: 0.24 ± 0.18 COI | GM in serum, % inhibition [2, 5]: 95% | CFU in lung [2, 6]: 0.8 ± 0.7 /mg of lung | CFU in lung, % inhibition [2, 6]: 97% | GM in BALF [2, 6]: 0.13 ± 0.02 COI | GM in BALF, % inhibition [2, 6]: 97% | GM in serum [2, 6]: 0.18 ± 0.07 COI | GM in serum, % inhibition [2, 6]: 97% | CFU in lung [2, 7]: 3.8 ± 1.0 /mg of lung | CFU in lung, % inhibition [2, 7]: 87% | GM in BALF [2, 7]: 0.24 ± 0.06 COI | GM in BALF, % inhibition [2, 7]: 95% | GM in serum [2, 7]: 0.29 ± 0.11 COI | GM in serum, % inhibition [2, 7]: 95% | CFU in lung [2, 8]: 1.9 ± 1.7 /mg of lung | CFU in lung, % inhibition [2, 8]: 93% | GM in BALF [2, 8]: 0.22 ± 0.14 COI | GM in BALF, % inhibition [2, 8]: 95% | GM in serum [2, 8]: 0.25 ± 0.19 COI | GM in serum, % inhibition [2, 8]: 95% | CFU in lung [2, 9]: 0.5 ± 0.3 /mg of lung | CFU in lung, % inhibition [2, 9]: 98% | GM in BALF [2, 9]: 0.11 ± 0.05 COI | GM in BALF, % inhibition [2, 9]: 98% | GM in serum [2, 9]: 0.24 ± 0.11 COI | GM in serum, % inhibition [2, 9]: 95% | ID50, IFNγ in BALF [3]: <80 µg/mL | ID50, IL-17 in BALF [3]: 74 µg/mL (≈ 108 µM) | ID50, MDA in BALF [3]: 110 µg/mL (≈ 161 µM) | IFNγ concentration in BALF [3, 10]: 3.7 ± 1.7 pg/mL | IFNγ in BALF, % Inhibition [3, 10]: 60% | IL-17 concentration in BALF [3, 10]: 9.8 ± 5.3 pg/mL | IL-17 in BALF, % Inhibition [3, 10]: 51% | MDA concentration in BALF [3, 10]: 0.96 ± 0.32 µg/mL | MDA in BALF, % Inhibition [3, 10]: 47% | IFNγ concentration in BALF [3, 11]: 3.0 ± 0.8 pg/mL | IFNγ in BALF, % Inhibition [3, 11]: 67% | IL-17 concentration in BALF [3, 11]: 6.7 ± 4.9 pg/mL | IL-17 in BALF, % Inhibition [3, 11]: 66% | MDA concentration in BALF [3, 11]: 0.57 ± 0.22 µg/mL | MDA in BALF, % Inhibition [3, 11]: 68% | IFNγ concentration in BALF [3, 12]: 2.5 ± 0.3 pg/mL | IFNγ in BALF, % Inhibition [3, 12]: 73% | IL-17 concentration in BALF [3, 12]: 3.2 ± 0.8 pg/mL | IL-17 in BALF, % Inhibition [3, 12]: 84% | MDA concentration in BALF [3, 12]: 0.34 ± 0.05 µg/mL | MDA in BALF, % Inhibition [3, 12]: 81% | IFNγ concentration in BALF [3, 13]: 4.3 ± 2.2 pg/mL | IFNγ in BALF, % Inhibition [3, 13]: 53% | IL-17 concentration in BALF [3, 13]: 8.5 ± 2.9 pg/mL | IL-17 in BALF, % Inhibition [3, 13]: 57% | MDA concentration in BALF [3, 13]: 0.45 ± 0.10 µg/mL | MDA in BALF, % Inhibition [3, 13]: 75% | IFNγ concentration in BALF [3, 14]: 3.3 ± 0.8 pg/mL | IFNγ in BALF, % Inhibition [3, 14]: 64% | IL-17 concentration in BALF [3, 14]: 4.0 ± 0.8 pg/mL | IL-17 in BALF, % Inhibition [3, 14]: 80% | MDA concentration in BALF [3, 14]: 0.37 ± 0.10 µg/mL | MDA in BALF, % Inhibition [3, 14]: 79% | IFNγ concentration in BALF [3, 15]: 2.1 ± 0.3 pg/mL | IFNγ in BALF, % Inhibition [3, 15]: 77% | IL-17 concentration in BALF [3, 15]: 2.9 ± 0.7 pg/mL | IL-17 in BALF, % Inhibition [3, 15]: 85% | MDA concentration in BALF [3, 15]: 0.25 ± 0.05 µg/mL | MDA in BALF, % Inhibition [3, 15]: 86%

CC[C@@H]([C@H](C)O)n1ncn(-c2ccc(N3CCN(c4ccc(OC[C@@H]5CO[C@@](Cn6cncn6)(c6ccc(F)cc6F)C5)cc4)CC3)cc2)c1=O [Posaconazole]
Median survival [1]: 6.5 days | No. of survivors on day 7 [1]: 0/6 | survivors on day 7 (%) [1]: 0% | ID50, GM in BALF [2]: 1300 µg/mL (≈ 1860 µM) | ID50, GM in serum [2]: 470 µg/mL (≈ 671 µM) | ID50, Lung Fungal Load [2]: 240 µg/mL (≈ 342 µM) | ID50, IFNγ in BALF [3]: 220 µg/mL (≈ 314 µM) | ID50, IL-17 in BALF [3]: 610 µg/mL (≈ 870 µM) | ID50, MDA in BALF [3]: 690 µg/mL (≈ 985 µM)
